≈ marks a conversion by molar mass, not a printed value.
Tests used:
Assay in all cases: In vitro antibacterial evaluation: minimum inhibitory concentration (MIC), broth dilution method
Format in all cases: cell-based
Enterococcus sp. = system: Enterococcus sp.
Procedure: (§1) The minimum inhibitory concentration (MIC), the lowest concentration of the antibiotic which inhibits growth of the test organism, is determined by the broth dilution method using Muller-Hinton II […] (Baltimore Biological Laboratories) following the recommendations of the National Committee for Clinical Laboratory Standards [Methods for dilution antimicrobial susceptibility tests for bacteria that grow aerobically, approved standard M7-A2, National Committee for Clinical Laboratory Standards, Villanova, Pa].
(§2) An inoculum level of 5×10^5 CFU/mL, and a range of antibiotic concentrations (64-0.06 μg/mL) is used. […] The test organisms include a spectrum of Gram-positive bacteria comprised of Staphylococcus sp., Streptococcus sp. and Enterococcus sp. These organisms include recent clinical isolates that are resistant to methicillin, penicillin and/or vancomycin.

Escherichia coli = system: Escherichia coli
Procedure: as §1, §2

Staphylococcus sp. = conditions: broth dilution, 18 hours at 35° C.
Procedure: as §1, §2

Streptococcus sp. = system: Streptococcus sp.
Procedure: as §1, §2

MIC Enterococcus faecalis (ATCC 29212) (Enterococcus sp.; strain ATCC 29212): >64 µg/mL
MIC Enterococcus faecalis (GC 2242) (Enterococcus sp.; strain GC 2242): >64 µg/mL
MIC Enterococcus faecium (GC 2243) (Enterococcus sp.; strain GC 2243): >64 µg/mL
MIC Enterococcus faecalis (GC 2691) (Enterococcus sp.; strain GC 2691): >64 µg/mL
MIC Enterococcus faecalis (GC 3059) (Enterococcus sp.; strain GC 3059): >64 µg/mL
MIC Enterococcus faecalis (GC 4552) (Enterococcus sp.; strain GC 4552): >64 µg/mL
MIC Enterococcus faecalis (GC 4553) (Enterococcus sp.; strain GC 4553): >64 µg/mL
MIC Enterococcus faecalis (GC 4554) (Enterococcus sp.; strain GC 4554): >64 µg/mL
MIC Enterococcus faecium (GC 4556) (Enterococcus sp.; strain GC 4556): >64 µg/mL
MIC Enterococcus faecium (GC 4557) (Enterococcus sp.; strain GC 4557): 16 µg/mL (≈ 11.1 µM)
MIC Enterococcus avium (GC 4558) (Enterococcus sp.; strain GC 4558): 64 µg/mL (≈ 44.3 µM)
MIC Enterococcus faecalis (GC 6189) (Enterococcus sp.; strain GC 6189): >64 µg/mL
MIC Escherichia coli (ATCC 25922) (Escherichia coli; strain ATCC 25922): >64 µg/mL
MIC Escherichia coli (GC 4559) (Escherichia coli; strain GC 4559): >64 µg/mL
MIC Escherichi coli (GC 4560) (Escherichia coli; strain GC 4560): 16 µg/mL (≈ 11.1 µM)
MIC Coagulase Negative Staphylococcus (GC 4547) (Staphylococcus sp.; 5×10^5 CFU/mL): 16 µg/mL (≈ 11.1 µM)
MIC Coagulase Negative Staphylococcus (GC 4548) (Staphylococcus sp.; 5×10^5 CFU/mL): 8 µg/mL (≈ 5.54 µM)
MIC Coagulase Negative Staphylococcus (GC 4549) (Staphylococcus sp.; 5×10^5 CFU/mL): 8 µg/mL (≈ 5.54 µM)
MIC Coagulase Negative Staphylococcus (GC 4551) (Staphylococcus sp.; 5×10^5 CFU/mL): 32 µg/mL (≈ 22.2 µM)
MIC Coagulase Negative Staphylococcus (GC 6257) (Staphylococcus sp.; 5×10^5 CFU/mL): 8 µg/mL (≈ 5.54 µM)
MIC Staphylococcus aureus (ATCC 29213) (Staphylococcus sp.; 5×10^5 CFU/mL): 32 µg/mL (≈ 22.2 µM)
MIC Staphylococcus aureus (GC 1131) (Staphylococcus sp.; 5×10^5 CFU/mL): 32 µg/mL (≈ 22.2 µM)
MIC Staphylococcus aureus (GC 3051) (Staphylococcus sp.; 5×10^5 CFU/mL): 32 µg/mL (≈ 22.2 µM)
MIC Staphylococcus aureus (GC 3053) (Staphylococcus sp.; 5×10^5 CFU/mL): 32 µg/mL (≈ 22.2 µM)
MIC Staphylococcus aureus (GC 4541) (Staphylococcus sp.; 5×10^5 CFU/mL): 16 µg/mL (≈ 11.1 µM)
MIC Staphylococcus aureus (GC 4542) (Staphylococcus sp.; 5×10^5 CFU/mL): 32 µg/mL (≈ 22.2 µM)
MIC Staphylococcus aureus (GC 4544) (Staphylococcus sp.; 5×10^5 CFU/mL): 32 µg/mL (≈ 22.2 µM)
MIC Staphylococcus aureus (GC 4545) (Staphylococcus sp.; 5×10^5 CFU/mL): 16 µg/mL (≈ 11.1 µM)
MIC Staphylococcus aureus-SMITH (GC 4543) (Staphylococcus sp.; 5×10^5 CFU/mL): 16 µg/mL (≈ 11.1 µM)
MIC Staphylococcus aureus (ATCC 29213) (Staphylococcus sp.; strain ATCC 29213): 32 µg/mL (≈ 22.2 µM)
MIC Staphylococcus aureus (GC 1131) (Staphylococcus sp.; strain GC 1131): 32 µg/mL (≈ 22.2 µM)
MIC Staphylococcus aureus (GC 3051) (Staphylococcus sp.; strain GC 3051): 32 µg/mL (≈ 22.2 µM)
MIC Staphylococcus aureus (GC 3053) (Staphylococcus sp.; strain GC 3053): 32 µg/mL (≈ 22.2 µM)
MIC Staphylococcus aureus (GC 4541) (Staphylococcus sp.; strain GC 4541): 16 µg/mL (≈ 11.1 µM)
MIC Staphylococcus aureus (GC 4542) (Staphylococcus sp.; strain GC 4542): 32 µg/mL (≈ 22.2 µM)
MIC Staphylococcus aureus-SMITH (GC 4543) (Staphylococcus sp.; strain GC 4543): 16 µg/mL (≈ 11.1 µM)
MIC Staphylococcus aureus (GC 4544) (Staphylococcus sp.; strain GC 4544): 32 µg/mL (≈ 22.2 µM)
MIC Staphylococcus aureus (GC 4545) (Staphylococcus sp.; strain GC 4545): 16 µg/mL (≈ 11.1 µM)
MIC Coagulase Negative Staphylococcus (GC 4547) (Staphylococcus sp.; strain GC 4547): 16 µg/mL (≈ 11.1 µM)
MIC Coagulase Negative Staphylococcus (GC 4548) (Staphylococcus sp.; strain GC 4548): 8 µg/mL (≈ 5.54 µM)
MIC Coagulase Negative Staphylococcus (GC 4549) (Staphylococcus sp.; strain GC 4549): 8 µg/mL (≈ 5.54 µM)
MIC Coagulase Negative Staphylococcus (GC 4551) (Staphylococcus sp.; strain GC 4551): 32 µg/mL (≈ 22.2 µM)
MIC Coagulase Negative Staphylococcus (GC 6257) (Staphylococcus sp.; strain GC 6257): 8 µg/mL (≈ 5.54 µM)
MIC Streptococcus pneumoniae (ATCC 6301) (Streptococcus sp.; strain ATCC 6301): 8 µg/mL (≈ 5.54 µM)
MIC Streptococcus pneumoniae (GC 1894) (Streptococcus sp.; strain GC 1894): 8 µg/mL (≈ 5.54 µM)
MIC Streptococcus pyogenes (GC 4563) (Streptococcus sp.; strain GC 4563): 16 µg/mL (≈ 11.1 µM)
MIC Streptococcus agalactiae (GC 4564) (Streptococcus sp.; strain GC 4564): 32 µg/mL (≈ 22.2 µM)
MIC Streptococcus pneumoniae (GC 4565) (Streptococcus sp.; strain GC 4565): 16 µg/mL (≈ 11.1 µM)
Structure (SMILES): COc1cc(OC)cc(C2OC3C(OC4C(CO)OC(Oc5ccc(CC6NC(=O)C(C(C)c7ccccc7)NC(=O)CNC(=O)C(CO)NC(=O)C(C(O)C7CNC(=N)N7C7OC(CO)C(O)C(O)C7O)NC(=O)C(C(O)C7CNC(=N)N7)NC6=O)cc5)C(O)C4O)OC(CO)C(O)C3O2)c1 (stereo not drawn) [Example 150a, Cyclo[glycyl-β-methylphenylalanyl-O-[4-O-[2,3-O-(3,5-dimethoxybenzylidene)hexopyranosyl]-hexopyranosyl]tyrosyl-3-(2-iminoimidazolidin-4-yl)seryl-3-(3-hexopyranosyl-2-iminoimidazolidin-4-yl)serylseryl]]
MIC Staphylococcus haemolyticus (GC 4546) (Staphylococcus sp.; 5×10^5 CFU/mL): 16 µg/mL (≈ 11.1 µM)
MIC Staphylococcus haemolyticus (GC 4546) (Staphylococcus sp.; strain GC 4546): 16 µg/mL (≈ 11.1 µM)
